Drawing on BindingDB's records for patent US20250313563 (The Broad Institute, 2025), this text covers IC50 for 48 compounds.

Molecules are shown by their SMILES. Values joined by “and” are separate entries in the source; they are usually repeats but may differ in a detail not shown here. Equal values may be shown once.

Assay [1] addresses Glycogen synthase kinase-3 alpha (Homo sapiens, UniProt P49840). The assay can be described thus: TR-FRET Assay. Summed up: (§1)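 30 min preinc w/ cpd in assay buffer → kinase rxn → EDTA quench → add detection mix (40 nM SA-d2, 2 nM Tb-pSer641 Ab) → TR-FRET read.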
(In general: Time-resolved FRET reads energy transfer from a long-lived donor to a nearby acceptor.)

Assay [2] deals with Glycogen synthase kinase-3 beta (Homo sapiens, UniProt P49841). The assay can be described thus: TR-FRET Assay. Summed up:
as §1

Sequence of Glycogen synthase kinase-3 alpha (P49840 whole entry): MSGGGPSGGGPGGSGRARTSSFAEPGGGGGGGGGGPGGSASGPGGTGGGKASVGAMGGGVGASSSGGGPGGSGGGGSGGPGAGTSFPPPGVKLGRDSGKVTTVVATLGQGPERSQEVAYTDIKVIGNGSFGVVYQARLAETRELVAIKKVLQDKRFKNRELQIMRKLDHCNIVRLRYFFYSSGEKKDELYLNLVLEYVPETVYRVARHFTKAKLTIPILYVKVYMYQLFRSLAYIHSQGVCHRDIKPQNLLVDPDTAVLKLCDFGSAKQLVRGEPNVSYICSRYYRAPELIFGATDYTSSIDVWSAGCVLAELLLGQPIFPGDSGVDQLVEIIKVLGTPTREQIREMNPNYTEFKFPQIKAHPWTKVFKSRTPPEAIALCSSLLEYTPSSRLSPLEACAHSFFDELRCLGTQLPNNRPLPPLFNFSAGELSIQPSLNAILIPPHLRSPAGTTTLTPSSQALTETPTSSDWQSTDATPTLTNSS
Sequence of Glycogen synthase kinase-3 beta (P49841 whole entry): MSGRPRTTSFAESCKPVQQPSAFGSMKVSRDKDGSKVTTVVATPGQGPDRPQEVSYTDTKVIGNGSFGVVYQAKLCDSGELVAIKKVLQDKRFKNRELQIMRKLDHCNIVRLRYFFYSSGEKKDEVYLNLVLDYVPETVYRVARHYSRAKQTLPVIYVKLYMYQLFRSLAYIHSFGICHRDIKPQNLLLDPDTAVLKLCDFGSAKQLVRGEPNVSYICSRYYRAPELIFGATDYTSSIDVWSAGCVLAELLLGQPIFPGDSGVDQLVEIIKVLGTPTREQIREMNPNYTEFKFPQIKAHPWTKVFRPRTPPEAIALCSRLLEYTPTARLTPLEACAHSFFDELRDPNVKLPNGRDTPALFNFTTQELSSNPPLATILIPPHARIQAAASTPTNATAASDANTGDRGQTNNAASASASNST

For orientation: IC50 means the midpoint of a concentration-inhibition curve. As to `COc1cccc(S(=O)(=O)N2CCC3(CC2)C2=C(N=NC2)NC2=C3C(=O)CC(C)(C)C2)c1` [US20250313563, Compound 901468], the concentration for half-maximal inhibition (IC50) in assay [1] is < 100 nM and 100 to 1000 nM; in assay [2], < 100 nM and 1000 to 5000 nM.
In the case of `COc1ccc(S(=O)(=O)N2CCC3(CC2)C2=C(N=NC2)NC2=C3C(=O)CC(C)(C)C2)cc1` [US20250313563, Compound 901469], the 50% inhibitory concentration (IC50) in assay [1] and in assay [2] was 100 to 1000 nM in each case.
Consider `CC1(C)CC(=O)C2=C(C1)NC1=C(CN=N1)C21CCN(S(=O)(=O)C2CC2)CC1` [US20250313563, Compound 901470], for which the IC50 was < 100 nM and 100 to 1000 nM in assay [1]; < 100 nM and 100 to 1000 nM in assay [2].
On to `Cn1ccc(S(=O)(=O)N2CCC3(CC2)C2=C(N=NC2)NC2=C3C(=O)CC(C)(C)C2)n1` [US20250313563, Compound 901471], for which the IC50 in assay [1] was < 100 nM and 100 to 1000 nM; in assay [2], < 100 nM and 1000 to 5000 nM.
As to `CO[C@H]1C[C@]2(C1)C1=C(N=NC1)NC1=C2C(=O)CC(C)(C)C1` [US20250313563, Compound 901472], the half-maximal inhibitory concentration (IC50) in assay [1] and in assay [2] was > 5000 nM in each case.
For the compound `CO[C@H]1C[C@@]2(C1)C1=C(N=NC1)NC1=C2C(=O)CC(C)(C)C1` [US20250313563, Compound 901473], the IC50 in assay [1] and in assay [2] was > 5000 nM throughout.
As for `CC1(C)CC(=O)C2=C(C1)NC1=C(CN=N1)C21CN(S(=O)(=O)c2ccccc2)C1` [US20250313563, Compound 901474], the half-inhibitory concentration (IC50) in assay [1] and in assay [2] was < 100 nM in each case.
As to `O=C1C[C@@]2(CCOC2)CC2=C1C1(CCOCC1)C1=C(N=NC1)N2` [US20250313563, Compound 901475], the IC50 in assay [1] and in assay [2] was 100 to 1000 nM throughout.
`O=C1C[C@]2(CCOC2)CC2=C1C1(CCOCC1)C1=C(N=NC1)N2` [US20250313563, Compound 901476]: the IC50 in assay [1] and in assay [2] was 100 to 1000 nM throughout.
Consider `O=C1C[C@H](C(F)(F)F)CC2=C1C1(CCOCC1)C1=C(N=NC1)N2` [US20250313563, Compound 901477], for which the IC50 in assay [1] is 100 to 1000 nM; in assay [2], 1000 to 5000 nM.
For `O=C1C[C@@H](C(F)(F)F)CC2=C1C1(CCOCC1)C1=C(N=NC1)N2` [US20250313563, Compound 901478], the IC50 in assay [1] and in assay [2] was 100 to 1000 nM each time.
Consider `CC[C@]1(c2cccc(OC)c2)C2=C(CC(C)(C)CC2=O)NC2N=NC(C(=O)OC)=C21` (stereo partly specified) [US20250313563, Compound 901479], for which the half-maximal inhibitory concentration (IC50) in assay [1] and in assay [2] was < 100 nM each time.
On to `CCC1(c2cccc(C(F)(F)F)c2)C2=CN=NC2NC2=C1C(=O)NC1(CCC1)C2` (stereo unspecified) [US20250313563, Compound 902202], for which the 50% inhibitory concentration (IC50) in assay [1] and in assay [2] was < 100 nM in each case.
Take `CCC1(c2cccc(N3CC(C)(C)C3C(C)C)c2)C2=CN=NC2NC2=C1C(=O)CC(C)(C)C2` (stereo unspecified) [US20250313563, Compound 902969]: the half-inhibitory concentration (IC50) lay in the range of 100 to 1000 nM in assay [1] and 1000 to 5000 nM in assay [2].
In the same order, the values of `CCC1(c2cccc(N(C)c3ccncn3)c2)C2=CN=NC2NC2=C1C(=O)CC(C)(C)C2` (stereo unspecified) [US20250313563, Compound 902970] are < 100 nM and 100 to 1000 nM.
Consider `CCC1(c2cccc(N(C)c3cnccn3)c2)C2=CN=NC2NC2=C1C(=O)CC(C)(C)C2` (stereo unspecified) [US20250313563, Compound 902971], for which the concentration for half-maximal inhibition (IC50) in assay [1] and in assay [2] was < 100 nM throughout.
Consider `CC1(C)CC(=O)C2=C(C1)NC1=C(CN=N1)[C@@]21CCOC2(CCCC2)C1` [US20250313563, Compound 907326], for which the 50% inhibitory concentration (IC50) lay in the range of 100 to 1000 nM in assay [1] and 1000 to 5000 nM in assay [2].
In the same order, the values of `CC1(C)CC(=O)C2=C(C1)NC1N=NC=C1[C@]21CCOC2(CCCC2)C1` (stereo partly specified) [US20250313563, Compound 907327] are 100 to 1000 nM and 1000 to 5000 nM.
On the same counts, the results for `CC[C@@H]1C[C@@]2(CCO1)C1=C(N=NC1)NC1=C2C(=O)CC(C)(C)C1` [US20250313563, Compound 907328] are 100 to 1000 nM and 1000 to 5000 nM.
On the same counts, the results for `CC[C@H]1C[C@]2(CCO1)C1=C(N=NC1)NC1=C2C(=O)CC(C)(C)C1` [US20250313563, Compound 907329] are 100 to 1000 nM and 1000 to 5000 nM.
Turning to `CCC1(c2cccc(N(C)C(=O)c3ccccc3)c2)C2=CN=NC2NC2=C1C(=O)CC(C)(C)C2` (stereo unspecified) [US20250313563, Compound 909201], the IC50 is < 100 nM in assay [1] and 100 to 1000 nM in assay [2].
In the same order, the values of `CCC1(c2cccc(N(C)C(=O)CN3CCCC3)c2)C2=CN=NC2NC2=C1C(=O)CC(C)(C)C2` (stereo unspecified) [US20250313563, Compound 909202] are 100 to 1000 nM and 1000 to 5000 nM.
On the same counts, the results for `CCC1(c2cc(N3CCOCC3)ccc2F)C2=CN=NC2NC2=C1C(=O)CC(C)(C)C2` (stereo unspecified) [US20250313563, Compound 909203] are 100 to 1000 nM and 1000 to 5000 nM.
Regarding `CCC1(c2cccc(S(=O)(=O)C3CC3)c2)C2=CN=NC2NC2=C1C(=O)CC(C)(C)C2` (stereo unspecified) [US20250313563, Compound 909204], the 50% inhibitory concentration (IC50) in assay [1] was < 100 nM; in assay [2], < 100 nM and 100 to 1000 nM.
As to `CCCC(C(C)=O)c1cccc(C2(CC)C3=CN=NC3NC3=C2C(=O)CC(C)(C)C3)c1` (stereo unspecified) [US20250313563, Compound 909205], the IC50 in assay [1] and in assay [2] was < 100 nM each time.
In the case of `CC1(C)CC(=O)C2=C(C1)NC1=C(CN=N1)C21CCN(S(=O)(=O)C2CCCC2)CC1` [US20250313563, Compound 909206], the IC50 in assay [1] was < 100 nM; in assay [2] it was < 100 nM and 100 to 1000 nM.
For `CC1(C)CC(=O)C2=C(C1)NC1=C(CN=N1)C21CCN(S(=O)(=O)CC2CC2)CC1` [US20250313563, Compound 909207], the IC50 in assay [1] is < 100 nM; in assay [2], < 100 nM and 100 to 1000 nM.
For the compound `O=C1CC2(CCC2)CC2=C1C1(CCOCC1)C1=C(N=NC1)N2` [US20250313563, Compound 909208], the results for the concentration for half-maximal inhibition (IC50) in assay [1] and in assay [2] were < 100 nM and 100 to 1000 nM, respectively.
On the same counts, the results for `CC1(C)CC(=O)C2=C(C1)NC1=C(CN=N1)C21CN(c2ccncn2)C1` [US20250313563, Compound 909209] are 1000 to 5000 nM and 1000 to 5000 nM.
With `CC1(C)CC(=O)C2=C(C1)NC1=C(CN=N1)[C@]21C[C@H](OCc2ccccc2)C1` [US20250313563, Compound 909210], the half-maximal inhibitory concentration (IC50) in assay [1] and in assay [2] was 100 to 1000 nM each time.
`CC1(C)CC(=O)C2=C(C1)NC1=C(CN=N1)[C@]21C[C@@H](OCc2ccccc2)C1` [US20250313563, Compound 909211]: the results for the IC50 in assay [1] and in assay [2] were < 100 nM and 100 to 1000 nM, respectively.
On the same counts, the results for `CC[C@]1(c2cc(-c3ccnc(C)c3)ccc2F)C2=CN=NC2NC2=C1C(=O)CC(C)(C)C2` (stereo partly specified) [US20250313563, Compound 909212] are < 100 nM and 100 to 1000 nM.
In the same order, the values of `CC[C@@]1(c2cc(-c3ccnc(C)c3)ccc2F)C2=CN=NC2NC2=C1C(=O)CC(C)(C)C2` (stereo partly specified) [US20250313563, Compound 909213] are > 5000 nM and > 5000 nM.
Take `CCN(C(C)=O)c1cccc([C@@]2(CC)C3=CN=NC3NC3=C2C(=O)CC(C)(C)C3)c1` (stereo partly specified) [US20250313563, Compound 909214]: the half-inhibitory concentration (IC50) in assay [1] and in assay [2] was < 100 nM each time.
For `CCN(C(C)=O)c1cccc([C@]2(CC)C3=CN=NC3NC3=C2C(=O)CC(C)(C)C3)c1` (stereo partly specified) [US20250313563, Compound 909215], the figures for the half-inhibitory concentration (IC50) in assay [1] and in assay [2] were 100 to 1000 nM and 1000 to 5000 nM, respectively.
In the case of `CC[C@]1(c2ccccc2)C2=CN=NC2NC2=C1C(=O)[C@H](C)C[C@@H]2C` (stereo partly specified) [US20250313563, Compound 909216], the IC50 in assay [1] and in assay [2] was 100 to 1000 nM throughout.
In the case of `CC[C@@]1(c2ccccc2)C2=CN=NC2NC2=C1C(=O)[C@H](C)C[C@@H]2C` (stereo partly specified) [US20250313563, Compound 909217], the IC50 was in the range of 100 to 1000 nM in assay [1] and 1000 to 5000 nM in assay [2].
In the same order, the values of `CC[C@@]1(c2ccccc2)C2=CN=NC2NC2=C1C(=O)[C@@H](C)C[C@H]2C` (stereo partly specified) [US20250313563, Compound 909218] are > 5000 nM and > 5000 nM.
In the same order, the values of `CC[C@]1(c2ccccc2)C2=CN=NC2NC2=C1C(=O)[C@@H](C)C[C@H]2C` (stereo partly specified) [US20250313563, Compound 909219] are > 5000 nM and > 5000 nM.
On the same counts, the results for `CC[C@]1(c2cc(-c3cnn(C)c3)ccc2F)C2=CN=NC2NC2=C1C(=O)CC(C)(C)C2` (stereo partly specified) [US20250313563, Compound 909220] are < 100 nM and 100 to 1000 nM.
For `CC[C@@]1(c2cc(-c3cnn(C)c3)ccc2F)C2=CN=NC2NC2=C1C(=O)CC(C)(C)C2` (stereo partly specified) [US20250313563, Compound 909223], the IC50 in assay [1] and in assay [2] was > 5000 nM throughout.
With `CC1(C)CC(=O)C2=C(C1)NC1=C(CN=N1)C21COC2(CN(C(=O)OC(C)(C)C)C2)C1` (stereo unspecified) [US20250313563, Compound 911083], the half-inhibitory concentration (IC50) in assay [1] lay in the range of 100 to 1000 nM; in assay [2], 1000 to 5000 nM.
On the same counts, the results for `CCC1(c2cccc(C(F)(F)F)c2)C2=CN=NC2NC2=C1C(=O)NC(C)C2` (stereo unspecified) [US20250313563, Compound 911956] are < 100 nM and 100 to 1000 nM.
In the same order, the values of `CC1OCCC12C1=C(N=NC1)NC1=C2C(=O)CC(C)(C)C1` (stereo unspecified) [US20250313563, Compound 911958] are > 5000 nM and > 5000 nM.
On the same counts, the results for `CC[C@H]1CCN1c1cccc([C@@]2(CC)C3=CN=NC3NC3=C2C(=O)CC(C)(C)C3)c1` (stereo partly specified) [US20250313563, Compound 911969] are < 100 nM and 100 to 1000 nM.
With `CC[C@@H]1CCN1c1cccc([C@@]2(CC)C3=CN=NC3NC3=C2C(=O)CC(C)(C)C3)c1` (stereo partly specified) [US20250313563, Compound 911970], the figures for the 50% inhibitory concentration (IC50) in assay [1] and in assay [2] were < 100 nM and 100 to 1000 nM, respectively.
As to `CC[C@H]1CCN1c1cccc([C@]2(CC)C3=CN=NC3NC3=C2C(=O)CC(C)(C)C3)c1` (stereo partly specified) [US20250313563, Compound 911972], the half-inhibitory concentration (IC50) in assay [1] was 1000 to 5000 nM; in assay [2], > 5000 nM.
In the same order, the values of `CC1(C)CC(=O)C2=C(C1)NC1=C(CN=N1)C21COC2(CCC2)C1` (stereo unspecified) [US20250313563, Compound 911973] are 100 to 1000 nM and 100 to 1000 nM.
